Assay results published in patent US8629277B2, “Styrenyl 1,2,4-oxadiazole compounds” (Piramal Enterprises Limited, priority 2010, dated 2014).
Like-named read-outs stand apart in the source and are kept apart here.

What was measured:
K562 = assay: Cell proliferation and cytotoxicity CCK-8 assay; format: cell-based, human; conditions: Homo sapiens; imatinib sensitive cell line K562; CCK-8, 72 h; read-out: Inhibitory concentrations (IC50) K562
Ba/F3 Bcr-Abl/T315I = Ba/F3 Bcr-Abl/T315I (Homo sapiens, UniProt P00519, T315I, cells depend on it)
Source text: Cell Proliferation and Cytotoxicity CCK-8 Assay:
Cell Counting Kit-8 (CCK-8) assay is a sensitive colorimetric assay for the determination of number of viable cells in cell proliferation and cytotoxicity assays. Cell Counting Kit-8 (CCK-8) utilizes Dojindo's highly water-soluble tetrazolium salt. The amount of the formazan dye generated by dehydrogenases in cells is directly proportional to the number of living cells.
The cell lines described in Table 1 were used to test the antiproliferative activity of the compounds of the present invention.
Cells were seeded at a density of ˜5×10^3 per well (0.09 mL) in a transparent 96-well tissue culture plate (NUNC, USA) and allowed to incubate at 37° C., 5% CO2 incubator for 2-6 h. Different concentrations of compounds of the present invention were added to the wells of the culture plate in triplicate. […] Plates were further incubated in an incubator at 37° C. in presence of 5% CO2 for 72 h. 10 μL of the CCK-8 solution was added to each well and plate was incubated for 1-4 h in the incubator. The absorbance was measured at 450 nm using a microplate reader. The percent inhibition and IC50 were calculated in comparison with control values.

Ba/F3 Bcr-Abl/E255K = molecular target: T1, Ba/F3 Bcr-Abl/E255K (Homo sapiens, UniProt P00519, E255K, cells depend on it); assay: Cell proliferation and cytotoxicity CCK-8 assay; format: cell-based; conditions: mouse, 72 h
T1 construct: fused on or other part: P11274 (Breakpoint cluster region protein)

TGFβ = TGFβ assay, Western blot analysis in Ba/F3 Bcr-Abl/T315I cells; format: cell-based; conditions: T315I cell line, 3×IC50, 72 h, FIG. 3
Procedure: TGFβ is a prime candidate for maintaining the CML stem cells in a non-cycling state. […] TGFβ plays a vital role in the preservation of the malignant progenitor population, and is partially responsible for the resistance to treatments targeting Bcr-Abl observed in a proportion of CML patients.
The Western Blot assay was carried out as in reference, Analytical Biochemistry, 1981, 112, 2, 195-203.
Western blot analysis was performed to decipher the mechanism of action of compounds of the present invention. […] The cells were incubated in a humidified incubator for 2-4 h at 37° C. […] Cells were then incubated for 72 h. Following the incubation, cells were harvested, washed with ice-cold phosphate buffered saline (PBS) and lysed with cold Cell Lytic buffer (Sigma Aldrich) supplemented with complete protease inhibitor cocktail (Roche, Germany). The protein extracts were obtained after centrifugation at 14,000 g at 4° C. (30 min). Aliquots of the resulting extracts were analyzed for their protein content using Bradford Reagent (Sigma) as per the manufacturer's instructions. In all the experiments, equivalent amounts of protein (70 μg) were loaded on 7.5%-10% Tris-glycine gels and resolved at 100 V for 2 h in a buffered solution (24.9 mM Tris base, 250 mM glycine, 0.1% SDS (sodium dodecyl sulfate)). […]

Ba/F3 Bcr-Abl/WT = assay: In-vivo efficacy in imatinib-sensitive xenograft model in SCID mice; conditions: 200 mpk b.i.d., p.o.
Procedure: In-vivo efficacy testing of compounds of the present invention in imatinib resistant and imatinib sensitive tumor models was carried out according to the reference Cancer Research, 2002, 62, 7149-7153.
Cell lines Ba/F3 transfectants expressing full-length wild type imatinib sensitive (Ba/F3 Bcr-Abl/WT) or mutated imatinib resistant (Ba/F3 Bcr-Abl/T315I) were used in this study. These recombinant cell lines were licensed from Dr. Brian Druker's laboratory, Howard Hughes Medical Institute, Oregon Health and Science University Cancer Institute, Portland, Oreg., USA.
Required compound was weighed and admixed with 0.5% (w/v) carboxymethylcellulose (CMC) and triturated with Tween-20 (secundum artum) with gradual addition of water to make up the final concentration. Imatinib mesylate was used as a standard.
A group of 110 Severely Combined Immune-Deficient (SCID strain-CBySmn.CB17-Prkdc^scid/J, The Jackson Laboratory, Stock #001803) male mice, 5-6 weeks old, weighing ˜20 g, were used.
Ba/F3 Bcr-Abl/WT cells and Ba/F3 Bcr-Abl/T315I cells were grown in RPMI1640 medium containing 10% fetal calf serum in 5% CO2 incubator at 37° C. Cells were pelleted by centrifugation at 1000-rpm for 10 minutes. […] Tumor size was recorded at 2-5 day intervals. […] Tumor growth in compound treated animals is calculated as T/C (Treated/Control)×100% and Growth inhibition Percent (GI %) was [100−T/C %].

[1] = mouse, ba/f3 bcr-abl/t315i, 72 h
[2] = read-out: Inhibitory concentrations (IC50) Ba/F3 Bcr-Abl/T315I, imatinib resistant cell line, CCK-8, 72 h

GI50 (Ba/F3 Bcr-Abl/T315I; [1]) | GI50 (Ba/F3 Bcr-Abl/T315I; [2]) | SMILES | IC50 (K562) | GI50 (Ba/F3 Bcr-Abl/E255K) | p-Smad2 and p-Smad3, effector target molecules of TGFβ signaling (TGFβ) | Tumor growth inhibition percent (% GI) Ba/F3 Bcr-Abl/WT (Ba/F3 Bcr-Abl/WT)
1.88 ± 0.31 µM | < 10 µM | Oc1ccc(C=Cc2nc(Cc3ccccc3)no2)cc1O [Compound of Example 4, 4-[2-(3-Benzyl-[1,2,4]oxadiazol-5-yl)-vinyl]-benzene-1,2-diol] | 11 to 100 µM | > 10 µM | strongly downregulated | 36%
2.32 ± 0.68 µM | < 10 µM | CCCc1noc(C=Cc2ccc(O)c(O)c2)n1 [Compound of Example 3, 4-[2-(3-Propyl-[1,2,4]oxadiazol-5-yl)-vinyl]-benzene-1,2-diol] | 11 to 100 µM | 5.4 µM | strongly downregulated | 63%
